{"source": "patent US6461845B1", "about": "“Recombinant hepatitis C virus RNA replicase” (Emory University, priority 1995, dated 2002)", "key": {"[1]": {"test": "isoelectric point of the enzyme", "format": "physicochemical"}, "[2]": {"test": "RNA synthesis by r-HCV-RDRP in vitro, Mg++ dependence", "format": "biochemical", "experimental": "Both reactions were >90% primer-dependent under the described reaction conditions.\nAssay conditions for r-HCV-RDRP activity: The preferred conditions for assaying RDRP activity are described. The alternative conditions are operative, and designated as alternatives, in parentheses. Incubations were carried out 20 or 50 μl in final volumes that contain: 20-50 mM HEPES-pH 8.0 (alternative is 20 mM Tris-HCl;pH 7.5); 1.5-5 mM MnCl2; 100 mM ammonium acetate; 1-4 mM dithiothreitol (DDT), 500 μM each ATP, CTP, and GTP (alternative: 500 μM GTP and 250 μM each ATP and CTP); 10 μM UTP; 1-20 μCi of [α-^33P]UTP (alternative is to use [α-^32P]UTP or [^3H]UTP), 10-20 U of RNasin; and rHCV-RDRP protein. Templates: 500-1000 ng of a preferred heteropolymeric template (e.g., either a 98 nt 3′-end of HCV genomic RNA or HCV RNA that included both the 5′ and 3′ ends of genomic or negative stranded HCV RNA) per 50 μl incubation; (as an alternative template, poly(A)/oligo(U) on either 20 μg/ml poly(A)460-600, and 10 μg/ml oligo (U)5-25 (or 0.8 μg of 10:1 mix of poly(A)/oligo(U) per 50 μl incubation can be employed). If the enzyme preparation is not >90-95 % pure include 50 μg/ml of actinomycin D. Incubations are for 15-120 min at 30° C. (or 22° C.). Note: stop incubations by adding 100 mM EDTA and then process for trichloroacetic acid (TCA) precipitation."}, "[3]": {"test_system": "globin mRNA template", "test": "RNA synthesis assay using a globin mRNA template", "format": "biochemical", "details": "described reaction conditions", "experimental": "(§1) Assay conditions for r-HCV-RDRP activity: The preferred conditions for assaying RDRP activity are described. The alternative conditions are operative, and designated as alternatives, in parentheses. Incubations were carried out 20 or 50 μl in final volumes that contain: 20-50 mM HEPES-pH 8.0 (alternative is 20 mM Tris-HCl;pH 7.5); 1.5-5 mM MnCl2; 100 mM ammonium acetate; 1-4 mM dithiothreitol (DDT), 500 μM each ATP, CTP, and GTP (alternative: 500 μM GTP and 250 μM each ATP and CTP); 10 μM UTP; 1-20 μCi of [α-^33P]UTP (alternative is to use [α-^32P]UTP or [^3H]UTP), 10-20 U of RNasin; and rHCV-RDRP protein. […]\n(§2) Labeled nucleotides incorporated into RNA are precipitated by TCA. The precipitates are collected, washed and counted, e.g. in a scintillation counter to measure the quantity of RNA synthesized in the enzyme reaction. […] [^3H]poly(U) was quantitated by liquid scintillation spectrometry (LKB 1218 RackBeta). The synthesized RNA can also be analyzed by gel electrophoresis to determine the size of the synthesized RNA chains. For gel analysis the reaction mixture is inactivated with 100 μl of proteinase K buffer; digested with proteinase K, processed and the RNA products are analyzed by formaldehyde/agarose gel electrophoresis or 6% denaturing polyacrylamide-7 M urea gel electrophoresis."}, "[4]": {"test_system": "poly(A) template", "test": "poly(U) synthesis assay using a poly(A) template", "format": "biochemical", "details": "described reaction conditions", "experimental": "as §1, §2"}}}
{"substance": "r-HCV-RDRP: Modified recombinant HCV RNA-dependent RNA polymerase (NS5B, type 1a) with N-terminal Met-Ala dipeptide, expressed in E. coli", "values": [{"measurement": "isoelectric point", "setting": "[1]", "value": "approximately 8.8"}, {"measurement": "Mg++ concentration giving maximal activity", "setting": "[2]", "value": "about 20 mM"}, {"measurement": "activity in the absence of Mg++", "setting": "[2]; no Mg++", "value": "no detectable activity"}, {"measurement": "primer dependence of RNA synthesis", "setting": "[3]", "value": "> 90", "unit": "%"}, {"measurement": "primer dependence of poly(U) synthesis", "setting": "[4]", "value": "> 90", "unit": "%"}]}
